In general, melting point refers to the temperature, or range, at which the solid turns liquid.

In turn, `O=C(O)c1c[nH]c2cccc(F)c12` came in with a melting point of 209 to 211 °C.

For `NCc1cccc(S(=O)(=O)N2CCCCC2)c1`, the melting point fell in the range of 67 to 69 °C.

Turning to `C/C(=N\O)c1scnc1C`, the melting point fell in the range of 144 to 146 °C.

`CC(C)NS(=O)(=O)Cc1ccc(CN)cc1` gave a melting point of 148 to 150 °C.

`COc1ccc(Cn2[nH]cc(Br)c2=N)cc1` had a melting point of 92 to 94 °C.

In the case of `Nc1ccc(-c2nc3ccccc3s2)cn1`, the melting point was 187 to 189 °C.

On to `O=C(O)CCCCc1ccc(Cl)cc1`, for which the melting point is 64 to 66 °C.

Turning to `Cc1cc2cc(Cl)cc(Cl)c2[nH]1`, the melting point lay within 49 to 51 °C.

As for `CN(CC(=O)O)C(=O)c1ccc(Br)s1`, the melting point was 114 to 116 °C.

In turn, `Cc1nn(Cc2cccc(Br)c2)cc1C(=O)O` returned a melting point of 164 to 166 °C.

As for `O=S(=O)(Cl)c1csc(-c2ccc(Br)cc2)n1`, the melting point lay in the range of 116 to 118 °C.

`CS(=O)(=O)NCc1cccc(CN)c1` came in with a melting point of 70 to 72 °C.

Take `NCC1(C(N)=O)CCOCC1`: the melting point lay in the range of 113 to 115 °C.

For the compound `NNC(=O)c1ccc(F)cc1Cl`, the melting point is 161 to 163 °C.

Take `Cc1nc(S)c(C(N)=O)c(C)c1C`: the melting point fell in the range of 294 to 296 °C.

In turn, `CN(C)c1ccc(C#N)cn1` registered a melting point of 64 to 66 °C.

`CCc1noc2ncc(C(=O)O)cc12` had a melting point of 193 to 195 °C.

Compound `CN(C)C(=O)C1CCC(C(=O)O)CC1` (configuration not stated) showed a melting point of 169 to 171 °C.

Consider `CCCc1[nH]ncc1C(=O)O`, for which the melting point was 207 to 209 °C.

For `COc1ccc(CCl)cc1Br`, the melting point was in the range of 45 to 51 °C.

Consider `O=C(O)c1ccc(NC(=O)c2ccccc2I)cc1`, for which the melting point lay within 275 to 277 °C.

`Nc1ccccc1N1CCCC1=O` came in with a melting point of 98 to 102 °C.

On to `NC(Cn1ccccc1=O)=NO`, for which the melting point was in the range of 211 to 213 °C.

Take `Nc1cc(C(=O)O)c(F)cc1F`: the melting point was 169 to 171 °C.

In turn, `Nc1ccc(Oc2cccc3cccnc23)cc1` gave a melting point of 203 to 205 °C.

With `Cc1ccc(C(=O)NC2CCNCC2)s1`, the melting point fell in the range of 163 to 165 °C.

In turn, `Cc1nnc(-c2ccccc2C(=O)O)o1` came in with a melting point of 158 to 160 °C.

Compound `Cc1ccc2[nH]c(C(=O)O)c(Cl)c2c1` registered a melting point of 191 to 193 °C.

In turn, `c1ccc2[nH]c(C3CCNCC3)cc2c1` had a melting point of 192 to 194 °C.

Regarding `O=C(O)CCCc1nc(-c2ccccc2)no1`, the melting point was in the range of 105 to 107 °C.

`NC(=O)COc1ccc(N)cc1` returned a melting point of 124 to 126 °C.

The compound `CC(=O)c1ccc(C(=O)O)c(F)c1` showed a melting point of 159 to 161 °C.

Turning to `Cc1[nH]c(-c2ncccn2)nc(=O)c1CC(=O)O`, the melting point lay in the range of 194 to 196 °C.

With `CCOC(=O)/C(C#N)=C\Nc1ccc(C)cc1`, the melting point fell in the range of 134 to 136 °C.

In turn, `Cc1[nH]nc(C(=O)O)c1[N+](=O)[O-]` displayed a melting point of 183 to 185 °C.

As for `CNC(=O)CNc1cccc(OC)c1`, the melting point fell in the range of 78 to 80 °C.

Compound `O=C1c2ccccc2C(=O)N1CC(O)CN1C(=O)c2ccccc2C1=O` yielded a melting point of 206 to 208 °C.

Compound `CC(=O)NCCc1ccc(S(=O)(=O)Cl)cc1` yielded a melting point of 131 to 133 °C.

The compound `COC(=O)c1c(N)sc2c1CCC2` showed a melting point of 149 to 151 °C.

`N#Cc1ccc(N=C=O)cc1` had a melting point of 101 to 104 °C.

Compound `CC(NC(=O)c1ccoc1)C(=O)O` (configuration not stated) came in with a melting point of 166 to 168 °C.

`CCOC(=O)C(NC(=O)c1ccccc1)C(=O)OCC` returned a melting point of 62 to 64 °C.

In turn, `Cn1ccnc1C(O)CCc1ccccc1` (configuration not stated) yielded a melting point of 101 to 103 °C.

In the case of `NS(=O)(=O)c1cc([N+](=O)[O-])c(Br)s1`, the melting point was 145 to 147 °C.

As for `O=C(O)C=C1CCOCC1`, the melting point was 99 to 101 °C.

In turn, `CC1CCc2[nH]c(=O)sc2C1` (configuration not stated) came in with a melting point of 180 to 182 °C.

Compound `CS(=O)(=O)c1ccc(Cl)s1` displayed a melting point of 69 to 71 °C.

As for `CCc1ccc(C(=O)O)cc1CC`, the melting point lay in the range of 100 to 102 °C.

As for `NC1CCc2c(O)cccc21` (configuration not stated), the melting point was in the range of 167 to 169 °C.

Regarding `CN(C)C(=O)c1cccc(S(N)(=O)=O)c1`, the melting point lay within 121 to 123 °C.

`O=C(O)C1CC=CCC1C(=O)N1CCCC1` (configuration not stated) came in with a melting point of 116 to 118 °C.

Consider `COC(=O)c1ccc(CNC(=O)C(C)Cl)cc1` (configuration not stated), for which the melting point was in the range of 96 to 98 °C.

`CS(=O)c1ccc(N)cc1F` (configuration not stated) registered a melting point of 109 to 111 °C.

Compound `CNc1ncnc2nc[nH]c12` registered a melting point of 316 to 318 °C.

Compound `O=C(O)COc1ccc(Cl)cc1Br` registered a melting point of 123 to 125 °C.

`COc1ccc(C(C)=O)cc1Br` yielded a melting point of 82 to 84 °C.

In turn, `O=S1(=O)CCC(Cc2nc3ccccc3[nH]2)C1` (configuration not stated) showed a melting point of 156 to 158 °C.

Compound `O=[N+]([O-])c1cc(F)c(S(=O)(=O)Cl)c(F)c1` returned a melting point of 73 to 75 °C.

`Cc1ccc(C#N)c(Br)c1` yielded a melting point of 50 to 55 °C.

Turning to `Cc1ccc(-c2csc(NC(=O)CCl)n2)cc1C`, the melting point was in the range of 179 to 181 °C.

`O=[N+]([O-])c1ccc(S(=O)(=O)Cl)c(C(F)(F)F)c1` returned a melting point of 78 to 80 °C.

As to `NC(CSCc1cccc2ccccc12)C(=O)O` (configuration not stated), the melting point was 199 to 201 °C.

Consider `O=C(O)/C(=C\c1ccccc1)c1ccc(Cl)cc1`, for which the melting point was 179 to 183 °C.

In turn, `Cc1oc(C)c(C(=O)O)c1Br` yielded a melting point of 189 to 191 °C.

Take `Cn1c(=O)cc(N)n(Cc2ccccc2)c1=O`: the melting point lay in the range of 95 to 99 °C.

In the case of `Cc1cc(NC(=O)CCl)on1`, the melting point was 106 to 108 °C.

For `c1ccc2cc(CN3CCNCC3)ccc2c1`, the melting point fell in the range of 53 to 55 °C.

Compound `N#Cc1cn(-c2ccccc2[N+](=O)[O-])nc1N` returned a melting point of 188 to 190 °C.

With `O=C(CCl)NC1CS(=O)(=O)CC1Cl` (configuration not stated), the melting point fell in the range of 181 to 190 °C.

In turn, `Nc1cccc(N2CCCCC2=O)c1` showed a melting point of 144 to 146 °C.

In turn, `Nc1ccc(F)c(N2CCCC2=O)c1` returned a melting point of 122 to 124 °C.

For `Nc1cc(S(=O)(=O)N2CCCC2)ccc1O`, the melting point is 163 to 165 °C.

The compound `N#Cc1n[nH]c2ccc(Cl)cc12` gave a melting point of 210 to 212 °C.

As for `CCOC(=O)c1ncsc1NC`, the melting point fell in the range of 92 to 94 °C.

As for `O=C(NCc1cccs1)c1ccc(-n2ccnc2S)cc1`, the melting point was 195 to 197 °C.

`ClCc1nnc(-c2ccccc2)o1` had a melting point of 90 to 100 °C.

In turn, `ClCc1cnc(-c2ccccc2)s1` registered a melting point of 57 to 59 °C.

In the case of `Nc1ccccc1N1C(=O)c2ccc(Br)cc2C1=O`, the melting point was in the range of 219 to 221 °C.

For `O=C(O)Cn1nnc(COc2ccccc2)n1`, the melting point lay in the range of 111 to 113 °C.

`O=C(O)C1CC(=O)N(c2ccc3c(c2)Cc2ccccc2-3)C1` (configuration not stated) gave a melting point of 254 to 256 °C.

In turn, `c1nnc(C2CCCNC2)[nH]1` (configuration not stated) had a melting point of 149 to 151 °C.

`Cn1cnc(-c2ccc(C(=O)O)cc2)n1` displayed a melting point of 274 to 276 °C.

For the compound `FC(F)(F)c1n[nH]c2ccncc12`, the melting point was in the range of 227 to 229 °C.

Take `O=C(O)CC1C(=O)Nc2ccccc21` (configuration not stated): the melting point was in the range of 214 to 216 °C.

Turning to `O=C(CCl)NC(=O)Nc1ccc2c(c1)OCCCO2`, the melting point is 110 to 112 °C.

In turn, `Cc1cnc(NC(=O)c2ccc(Br)o2)s1` displayed a melting point of 190 to 192 °C.

In the case of `O=C(O)c1ccc(Cl)o1`, the melting point is 180 to 182 °C.

`O=S(=O)(c1cccc(-c2nnc(S)o2)c1)N1CCCCC1` came in with a melting point of 205 to 207 °C.

Consider `CCOC(=O)c1c(C)oc2nc(CCl)[nH]c(=O)c12`, for which the melting point lay in the range of 197 to 199 °C.

As to `CC(C)(C)OC(=O)NCC(N)C1CCCCC1` (configuration not stated), the melting point lay in the range of 47 to 49 °C.

In the case of `O=C1CCCc2nc(-c3ccncc3)sc21`, the melting point is 159 to 161 °C.

Regarding `FC(F)(F)CNc1nnc(S)s1`, the melting point is 178 to 180 °C.

`O=C(CCCl)Nc1ccc2c(c1)OCO2` showed a melting point of 142 to 144 °C.

`COc1ccc(-c2nn(-c3ccccc3)cc2C=O)cc1` had a melting point of 135 to 137 °C.

For the compound `Oc1ccc(Cl)cc1C(F)(F)F`, the melting point lay in the range of 67 to 69 °C.

`FC(F)(F)c1nc2c([nH]1)CCCC2` showed a melting point of 229 to 231 °C.

In turn, `O=C(O)CCCNc1ccc(C(F)(F)F)cn1` came in with a melting point of 91 to 93 °C.

As for `COc1ccc(C=O)c2cc(C(=O)O)oc12`, the melting point was 264 to 266 °C.

Compound `O=C(O)CCCOc1cccc2ccccc12` had a melting point of 116 to 118 °C.

As to `CCc1cc(=O)[nH]c(-c2cccc(N)c2)n1`, the melting point is 139 to 141 °C.

Consider `N#Cc1c[nH]c2ccc(Cl)cc2c1=O`, for which the melting point is 381 to 383 °C.

`O=C(O)c1ccc(-n2ccnn2)cc1`: the melting point is 279 to 281 °C.

Take `CC1(C2CCCCC2)NC(=O)NC1=O` (configuration not stated): the melting point lay within 113 to 115 °C.

Turning to `CC1C(O)CC2CC1C2(C)C` (configuration not stated), the melting point lay in the range of 51 to 53 °C.

In turn, `CN(c1ccc(O)cc1)S(C)(=O)=O` registered a melting point of 129 to 131 °C.

Regarding `CC(C)c1ccc(S(=O)(=O)Cc2ccoc2C(=O)O)cc1`, the melting point lay within 156 to 158 °C.

On to `Nc1ccc(N2CCCC2)c(S(=O)(=O)Nc2cccc(C(F)(F)F)c2)c1`, for which the melting point lay in the range of 151 to 153 °C.

The compound `Cc1cc(C)c2c(=O)[nH][nH]c2n1` displayed a melting point of 249 to 251 °C.

The compound `CCC(Oc1ccccc1C)C(=O)O` (configuration not stated) showed a melting point of 49 to 51 °C.

In turn, `O=C(c1ccc(Cl)cc1)c1ccccn1` yielded a melting point of 63 to 65 °C.

Regarding `CCn1c(=O)[nH]c2ccccc21`, the melting point lay in the range of 120 to 124 °C.

In turn, `Cc1nnc(C2Cc3ccccc3CN2)o1` (configuration not stated) displayed a melting point of 65 to 67 °C.

Consider `CC1CCN(C(=O)CCl)c2ccccc2S1` (configuration not stated), for which the melting point lay within 125 to 127 °C.

Regarding `ClCc1ccc(-c2nc3cc(Cl)ccc3s2)cc1`, the melting point was 164 to 166 °C.

Take `CCn1c(S)nc2ccccc21`: the melting point was in the range of 135 to 137 °C.

`CC(C)COc1ccc(-c2nn(-c3ccccc3)cc2C=O)cc1` had a melting point of 100 to 102 °C.

`NCc1cc2c([nH]c1=O)CCC2` gave a melting point of 129 to 131 °C.

`NS(=O)(=O)c1ccc(NCC(=O)O)cc1` displayed a melting point of 239 to 241 °C.

`CC(O)CNc1cc(Cl)ncn1` (configuration not stated) gave a melting point of 101 to 103 °C.

On to `Cc1ccc(C)c(SCc2nc3sc(C(=O)O)c(C)c3c(=O)[nH]2)c1`, for which the melting point was in the range of 295 to 297 °C.

In the case of `O=S(=O)(c1ccc(N=C=S)cc1)N1CCOCC1`, the melting point fell in the range of 99 to 101 °C.

On to `COc1ccc(OC)c(NC(=O)C(C)Cl)c1` (configuration not stated), for which the melting point lay in the range of 56 to 58 °C.

Values taken from a melting point compilation (Tetko et al.).
